Laboratory results taken from PubChem BioAssay (NCI).
Where “and” joins values, the source holds several entries; their conditions need not be identical. Equal values may be shown once.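 Cultured in 96-well plates, cells were exposed to test compound for 48 hours across five concentrations. GI50 marks 50% less growth. TGI is the concentration that stops growth completely.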

Assays:
Experiment in all cases: NCI-60 cell line screen, 48 h
A498 renal = tested on: A498 renal
HCT-116 colon = tested on: HCT-116 colon
HCT-15 colon = tested on: HCT-15 colon
KM12 colon = tested on: KM12 colon
MDA-MB-435 = tested on: MDA-MB-435
SK-MEL-5 melanoma = tested on: SK-MEL-5 melanoma
TK-10 renal = tested on: TK-10 renal

Compound | GI50 (A498 renal) [µM] | TGI (A498 renal) [µM] | GI50 (HCT-116 colon) [µM] | TGI (HCT-116 colon) [µM] | GI50 (HCT-15 colon) [µM] | TGI (HCT-15 colon) [µM] | GI50 (KM12 colon) | TGI (KM12 colon) [µM] | GI50 (MDA-MB-435) [µM] | TGI (MDA-MB-435) [µM] | GI50 (SK-MEL-5 melanoma) [µM] | TGI (SK-MEL-5 melanoma) [µM] | GI50 (TK-10 renal) [µM] | TGI (TK-10 renal) [µM]
COc1ccc(C/C(C)=C(/c2ccc(OCCN3CCCCC3)cc2)c2ccc(OC(=O)NCc3ccccc3)cc2)cc1 | 0.398 | 0.744 | 0.33 | 0.698 | 0.339 | 0.706 | 0.44 µM | 0.826 | 0.393 | 0.736 | 0.421 | 0.774 | 0.405 | 0.781
C#CC#CC#CC#CC#CC#CC#CC#CCC1OCC(COC(=O)O[C@@H](C(=O)O[C@H]2C[C@@]3(O)[C@@H](OC(=O)c4ccccc4)[C@@H]4[C@]5(OC(C)=O)CO[C@@H]5C[C@H](O)[C@@]4(C)C(=O)[C@H](OC(C)=O)C(=C2C)C3(C)C)[C@@H](NC(=O)c2ccccc2)c2ccccc2)O1 (some centres undefined) | 0.191 | – | 0.0533 | > 33.3 | > 9.51 | > 33.3 | 0.0986 µM | > 33.3 | 0.0167 | 0.0434 | 0.671 | > 9.85 | > 16.3 | > 33.3
Cc1cccc(/C=N/NC(=S)N2CCCC2)n1 | 7.22 | 5.61 | – | – | 0.586 | > 100 | 0.88 µM and 0.322 µM | > 100 | 1.11 | > 100 | – | 0.823 | 4.82 | 1.35
C[C@@H]1[C@H](C)N1CC(O)Cn1ccnc1[N+](=O)[O-] (some centres undefined) | – | > 100 | – | > 100 | – | > 100 | – | > 100 | – | > 100 | – | > 100 | – | > 100
COc1cc(C(=O)c2c(-c3ccccc3)oc3c(OC)cccc23)cc(OC)c1OC | 0.0212 | 0.0696 | – | – | 0.0444 | > 100 | 0.0567 µM | > 100 | 0.0216 | 0.0577 | 0.157 | 0.733 | 10 | > 62.2
CC1(C)C2CCC13C(=O)C1OC3(C2)C2C(=O)c3ccccc3C(=O)C12 (centres undefined) | – | – | > 100 | > 100 | 79.4 | > 100 | 82.9 µM | > 100 | > 100 | > 100 | – | – | > 100 | > 100
O=C1c2cc3c(cc2[C@@H]2[C@H]1c1ccc([N+](=O)[O-])cc1C(=O)N2CCCBr)OCO3 | < 0.01 | < 0.01 | – | – | < 0.0226 | 0.656 | 0.0437 µM | 3.95 | < 0.01 | 0.219 | < 0.01 | 0.0101 | 0.134 | 4.04
COc1cc2c(cc1OC)[C@H](C)N1CCc3cc(OC)c(OC)cc3[C@@H]1C2 | – | > 100 | – | > 100 | – | > 100 | – | > 100 | – | > 100 | – | > 100 | – | > 100
O=C1OCC2=C1C(c1cccc(Cl)c1)c1cc3c(cc1N2CCO)OCCO3 (centres undefined) | 0.0265 | 0.58 | 0.0566 | 4.01 | 0.073 | > 100 | 0.0431 µM | 1.72 | 0.0236 | 0.0626 | 0.036 | 0.507 | 0.12 | 37.3
CC1=C(c2cccc(O)c2)[C@H](c2ccc(OCCN3CC(CF)C3)cc2)Oc2ccc(O)cc21 | 1.68 | 9.66 | 4.46 | 17.5 | 6.09 | 19.6 | 6.44 µM | 21.7 | 12 | 24.3 | 3.58 | 12.8 | 12 | 25.1
